Legend:
Format in all cases: cell-based, rat
PC12 cells = experiment: Adhesion and inhibition assay, colorimetric; details: data not shown
Experimental: (§1) Adhesion assays were performed as described in (à compléter) with some modifications. Coating with the various molecules, at the indicated concentrations in 0.5 ml PBS, was performed in plastic 24-well multidishes (Nunclon™) at 37° C. (1 h or overnight).The cells were then washed three times with PBS, coating blocked with 1% heat-inactivated BSA (à compléter) for at least 1 h at 37° C., followed by three PBS washes, before addition of the cells (10^6 cells per ml in serum-free medium containing 0.1% heat-inactivated BSA). In standard experiments, purified KAL was applied at 3 μg/ml. Other substrates were used as control, fibronectin ([…]) and poly-L-lysine (100 μg/ml).
(§2) Cells were incubated for 30 min to 1 h on coated wells. Medium was then aspirated and unbound cells removed by one wash with PBS. The adherent cells were fixed with […] paraformaldehyde (PFA) in PBS and stained with 0.1% crystal violet. Quantification of the attached cells was performed using a colorimetric method (à compléter). Data are expressed as the percentage of adherent cells on each tested substrate with reference to poly-L-lysine. Assays in triplicate were repeated in three independent experiments.
Cells were incubated for 5 min at room temperature in HBSS containing 5 mM EDTA, washed once with HBSS and preincubated for 1 h at 4° C. in HBSS containing 0.1% BSA in the absence or in the presence of Ca^++ and/or Mg^++ prior plating.
Heparin, heparan sulfate or chondroitin sulfate (up to 1 mg/ml in PBS) was added in KAL-coated-BSA-saturated wells, and allowed to interact for 2 h at 37° C. After three washings with PBS, CHO-K1or PC12 cells were plated, and incubated as usual.
A 32 aminoacid peptide (32R1-FIG. 24) was synthesized (Syntiem laboratory). Control peptides were C17 (NH2CSLVPTKKKRRKTTDGF-COON) (SEQ ID NO:7) derived from the second fibronectin type III repeat of human KAL and C 16V (NHzCGSYANNNRYGRDPPTSV-000H), (SEQ ID NO:8) derived from the EYA1 protein (a completer). The peptides, at various concentrations (10 to 30 μg/ml), were directly adsorbed on polystyrene microtiter wells (Immulon 4, Nunc). […]

[1] = tested on: olfactory neurons (line 24); experiment: Adhesion and peptide/serum inhibition assay, colorimetric; details: for percentage of olfactory neurons (line 24) adherent on substrate: substrate coated to microtiter wells
Experimental: as §1, §2
A 32 aminoacid peptide (32R1-FIG. 24) was synthesized (Syntiem laboratory). Control peptides were C17 (NH2CSLVPTKKKRRKTTDGF-COON) (SEQ ID NO:7) derived from the second fibronectin type III repeat of human KAL and C 16V (NHzCGSYANNNRYGRDPPTSV-000H), (SEQ ID NO:8) derived from the EYA1 protein (a completer). The peptides, at various concentrations (10 to 30 μg/ml), were directly adsorbed on polystyrene microtiter wells (Immulon 4, Nunc). Adhesion assays were performed as described above.
In peptide inhibition assays, cells were preincubated with the peptides at different concentrations (10 to 100 μg/ml) for 1 h at 4° C., then plated to KAL-coated wells, and incubated for a further 30 min period of time.

[2] = tested on: olfactory neurons (line 24); experiment: Spreading and neurite growth on coated substrates; details: mean ± SEM
Experimental: FIG. 28: Mean neurite length on the different substrates after one hour, two hours and eight hours in vitro. Mean value±SEM. More than 100 neurons were analyzed in each experimental condition.
Cells, in serum-free medium containing 0.1% heat inactivated BSA were seeded on KAL- or laminin-coated wells, and maintained for 20 min to 22 h at 37° C. Adherent cells were fixed, stained with toluidine blue, and photographied with an inverted microscope.

**Q.** For O=C(O)CN(CCN(CC(=O)O)CC(=O)O)CC(=O)O [EDTA], which “effect of chelating Ca++ and Mg++ on adhesion of PC12 cells to KAL” value (PC12 cells; cells incubated with EDTA for 5 minutes prior plating) is on record?
**A.** The value was “did not modified the amount of adhering cells”.

**Q.** How did the “effect of preincubation with peptide on adhesion to KAL” value ([1]; 50 μM) turn out when “NH2CSLVPTKKKRRKTTDGF-COON [17R2, reference compound]” was run?
**A.** Its value is “had no effect”.

**Q.** What about the “percentage of olfactory neurons (line 24) adherent on substrate” value (“percentage of olfactory neurons” for short) [1] of the same compound?
**A.** Its value is “no adhesion”.

**Q.** Which “effect of preincubation with peptide on adhesion to fibronectin and laminin substrates” value [1] does the source give for “NHz-RPSRWYQFRVAAVNVHGTRGFTAPSKHFRSSK-000H [32R1]” here?
**A.** Its value is “had no effect”.

**Q.** What about the “concentration of peptide giving complete inhibition of adhesion to KAL substrate” value ([1]; cells preincubated with peptide) of the same compound?
**A.** Its value is 26 µM.

**Q.** What about the “percentage of olfactory neurons” value [1] of the same compound?
**A.** The value was 80%.

**Q.** And the “mean neurite length per olfactory neuron” value ([2]; eight hours after plating)?
**A.** The value was 63 (±2) μm.

**Q.** What about the “mean neurite length per olfactory neuron” value ([2]; one hour on substrate) of the same compound?
**A.** Its value is 32 (±4) μm.

**Q.** What about the “adhesion of PC12 cells on peptide substrate” value (PC12 cells; compared with olfactory neurons) of the same compound?
**A.** The value was “same results”.

**Q.** Which “percentage of olfactory neurons” value [1] does the source give for “NHzCGSYANNNRYGRDPPTSV-000H [C16V, reference compound]” here?
**A.** Its value is “no adhesion”.

— US20070037736A1, “Therapeutic composition comprising the KAL protein and use of the KAL protein for the treatment of retinal, renal, neuronal and neural injury” (INSTITUT PASTEUR, priority 1997, published 2007)
